The record followed here is patent US20030077653A1, “Method for the identification of active site protease inactivators” (The University of Georgia Research Foundation, Inc., priority 2000, published 2003).

Experiment [1] concerns purified Taenia solium cysteine protease. Kind of experiment: Screen of AFC-linked synthetic substrates for cleavage (Step II). It counts as biochemical. Conditions: pH 4.9, 18 h, 37° C. As for the experimental part:
In this step, the most efficacious substrate for detection of the cysteine protease (high Kcat substrate) was determined in vitro along with those substrates which were not well cleaved (low kcat substrates). From this point forth, the following conditions refer to all assays: “assay buffer” refers to 0.4 M Citrate, pH 4.9 (the pH optima of the protease). Incubation time was 18 hours at 37° C. These conditions were determined by our preliminary data to be best for kinetic evaluation of the protease. […] The experiments were conducted in […] Borosilicate mini-culture tubes (Fisher Scientific), and a fluorometer (Turner) was employed for detection of AFC cleavage.
Approximately 1 ug (or a proteolytically detectable amount) of the purified target cysteine protease was incubated individually, with 1 μg of each of the available substrates in 500 μL of assay buffer. During this setup, the substrate was pre-incubated in the assay buffer for a short period of time (20 minutes) in order to reach an equilibrated status before the addition of the protease. Cleavage assessments were based upon the property of the protease to cleave synthetic peptide substrates linked at the C-terminus to 7-Amino-4-Trifluoromethyl Coumarin (AFC) as previously described. AFC linked tripeptides, dipeptides, and monopeptides, (with a variety of permutations at P3-P1) were available from Enzyme Systems Products (Livermore, CA), and were used as the source of the subset. Following incubation of enzyme preparations overnight (18 h, 37 ° C.) with peptide in assay buffer (Citrate, pH 4.9, supplemented with 0.01 M cysteine), free AFC concentrations were measured fluorometrically (excitation […]). The proteolytic cleavage released the AFC group, which was measurable as a free molecule by a standard fluorometer and converted into molar quantities, based upon a previously established standard curve. The simplicity of AFC detection by the fluorometer was a key factor which quickened and simplified the procedures.
In the assay, 1 ug of the purified Taenia cysteine protease was added to a saturating amount of Z-Phe-Arg-AFC (4×10^−5 M) in assay buffer. The experiment was conducted in triplicate and repeated at least 5 times until we were certain that variability in AFC cleavage was not statistically significant.
Vmax was calculated for the cleavage of substrates by the purified target protease and Vmax was calculated for substrates cleaved by the crude mix protease using conventional kinetic modeling calculations already described in the art.

Experiment [2] concerns the target Cathepsin L (Homo sapiens, UniProt P07711). Put plainly: Differential cleavage (selectivity) test. Conditions: vehicle 4×10^−5 M; pH 5.5, Z-FR-AFC. The class given is biochemical. On the procedure: (§1) In order to perform the assay, the vehicle (for Step VI) or inhibitor (for Step IX) were incubated with the appropriate substrate in the correct assay buffer and allowed to equilibrate. Subsequently, the protease was added, and the assay was allowed to incubate for an appropriate time. The concentrations used in this experiment were as follows: Vehicle was set up at 4×10^−5 M in final assay buffer; Inhibitor was set up at 3×10^−10 M in the final assay buffer. Accordingly, the dosages employed should be the minimal amount of vehicle or inhibitor necessary to induce inhibition. […] Substrates were set up based upon the preferred substrate for cleavage of the particular enzyme.
(§2) Positive controls were set up similarly as described for test controls, except that solvent was added in substitution for the inhibitor or vehicle (in a volume equal to the volume of inhibitor or vehicle addition). All of the inhibitors and vehicles could be dissolved in dimethylsulfoxide (DMSO), and therefore, this was the solvent of choice. Negative controls were set up by adding the inhibitor or vehicle and the preferred substrates in a tube without the protease. All potential non-proteolytic liberation of AFC was therefore controlled for in this tube (a feature which also insured stability of the AFC substrates, since these substrates will freely liberate AFC when unstable).
(§3) All controls were set up in triplicate, and experiments were repeated a minimum of five times.
(§4) Percent inhibition was calculated as: [formula]
(§5) In this preliminary test, we employed the following human-derived enzymes (with indicated mechanistic class): Cathepsin B (cysteine), Cathepsin L (cysteine), Cathepsin H (cysteine), Cathepsin D (aspartic) Trypsin (serine), the purified Taenia solium cysteine protease, and the Taenia solium crude mix. Cathepsin B was prepared in an assay buffer of 10 mM L-cysteine in 0.4 M Citrate buffer, pH 6. 1, using Z-ARR-AFC as the cleavage substrate. Cathepsin L was prepared in an assay buffer of 10 mM L-cysteine in 0.4 M Citrate buffer, pH 5.5, using Z-FR-AFC as the cleavage substrate. Cathepsin H was prepared in an assay buffer of 10 mM L-cysteine in 0.15 M PBS buffer, pH 6.8, using L- R-AFC as the cleavage substrate. Cathepsin D was prepared in an assay buffer of 0.15 M PBS, pH 7.1, using Z-RGFFP-AFC as the cleavage substrate. Trypsin was prepared in an assay buffer of 0.15 M PBS, pH 8.0, supplemented with 100 mM CaCl2 and with Z-R-AFC as the cleavage substrate. Enzyme was incubated so that it was at least 50 times less than the concentration of substrate in order to insure saturating conditions.

Experiment [3] has as its target T1, Cathepsin H (Homo sapiens, UniProt P09668).
T1 sequence (P09668 98-335): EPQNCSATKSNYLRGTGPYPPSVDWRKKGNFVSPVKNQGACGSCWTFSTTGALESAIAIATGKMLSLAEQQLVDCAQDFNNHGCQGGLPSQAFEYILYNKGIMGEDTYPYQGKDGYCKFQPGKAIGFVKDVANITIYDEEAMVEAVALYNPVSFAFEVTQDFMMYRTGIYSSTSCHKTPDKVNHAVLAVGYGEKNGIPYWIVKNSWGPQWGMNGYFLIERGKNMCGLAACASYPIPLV
Put plainly: Differential cleavage (selectivity) test. Conditions: vehicle 4×10^−5 M; pH 6.8, L-R-AFC. The class given is biochemical. On the procedure:
as §1, §2, §3, §4, §5

For experiment [4], the target named is Cathepsin D (Homo sapiens, UniProt P07339). Kind of experiment: Differential cleavage (selectivity) test. It counts as biochemical. Conditions: vehicle 4×10^−5 M; pH 7.1, Z-RGFFP-AFC. On the procedure:
as §1, §2, §3, §4, §5

Experiment [5] deals with Cathepsin B (Homo sapiens, UniProt P07858). Kind of experiment: Differential cleavage (selectivity) test. It counts as biochemical. Conditions: vehicle 4×10^−5 M; pH 6.1, Z-ARR-AFC. On the procedure: as §1, §2, §3, §4, §5
In experiment [6] the test system is Trypsin. Put plainly: Differential cleavage (selectivity) test. It counts as biochemical, human. Conditions: vehicle 4×10^−5 M; pH 8.0, Z-R-AFC. As for the experimental part: as §1, §2, §3, §4, §5

The structures appear in SMILES notation. Residues, ends and D or L forms follow the SMILES beside them. *: point of attachment. AFC = O=c1cc(C(F)(F)F)c2ccc(N*)cc2o1; Cbz = O=C(OCc1ccccc1)*

Chain of Cathepsin D (P07339 65-412): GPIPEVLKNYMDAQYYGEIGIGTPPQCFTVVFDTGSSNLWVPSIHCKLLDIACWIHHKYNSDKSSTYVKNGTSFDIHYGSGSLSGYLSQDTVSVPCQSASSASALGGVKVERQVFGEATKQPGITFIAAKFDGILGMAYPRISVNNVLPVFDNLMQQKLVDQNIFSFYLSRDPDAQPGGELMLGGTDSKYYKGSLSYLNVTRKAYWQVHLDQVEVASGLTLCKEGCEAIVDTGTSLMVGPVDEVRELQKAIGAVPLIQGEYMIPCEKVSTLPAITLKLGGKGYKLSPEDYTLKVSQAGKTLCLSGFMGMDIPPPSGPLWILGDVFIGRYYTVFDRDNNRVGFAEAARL
Chain of Cathepsin L (P07711 114-333): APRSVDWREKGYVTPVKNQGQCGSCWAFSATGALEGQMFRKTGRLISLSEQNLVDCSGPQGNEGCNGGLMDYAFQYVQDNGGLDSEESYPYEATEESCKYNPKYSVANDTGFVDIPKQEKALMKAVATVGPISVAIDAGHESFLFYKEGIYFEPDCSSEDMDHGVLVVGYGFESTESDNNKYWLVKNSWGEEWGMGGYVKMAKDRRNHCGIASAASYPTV

For `CC(C)C[C@H](NC(=O)OCc1ccccc1)C(=O)N[C@@H](CC(C)C)C(=O)N[C@@H](Cc1ccc(O)cc1)C(=O)Nc1ccc2c(C(F)(F)F)cc(=O)oc2c1` [Z-LLY-AFC, Z-Leu-Leu-Tyr-AFC] (Cbz-Leu-Leu-Tyr-{AFC}), in experiment [1], the “cleavage as substrate (Vmax)” value is on record as “noncleavable”. In experiment [2], the “Percent inhibition of Cathepsin L (cysteine)” value worked out at 0%. Also, the “Percent inhibition of Cathepsin H (cysteine)” value in experiment [3] was determined as 0%. In addition, in experiment [4], the “Percent inhibition of Cathepsin D (aspartic)” value is given as 0%. Further, in experiment [5], the “Percent inhibition of Cathepsin B (cysteine)” value is 0%. The “Percent inhibition of Trypsin (serine)” value in experiment [6] came to 0%.

With `CC(C)C[C@H](NC(=O)OCc1ccccc1)C(=O)N[C@@H](CC(C)C)C(=O)N[C@@H](CC(C)C)C(=O)Nc1ccc2c(C(F)(F)F)cc(=O)oc2c1` [Z-LLL-AFC, Z-Leu- Leu-Leu-AFC] (Cbz-Leu-Leu-Leu-{AFC}), the “cleavage as substrate (Vmax)” value in experiment [1] was “noncleavable”. Further, the “Percent inhibition of Cathepsin L (cysteine)” value in experiment [2] is given as 0%. Further, the “Percent inhibition of Cathepsin H (cysteine)” value in experiment [3] is recorded as 0%. The “Percent inhibition of Cathepsin D (aspartic)” value in experiment [4] is 0%. Further, the “Percent inhibition of Cathepsin B (cysteine)” value in experiment [5] stood at 0%. Also, the “Percent inhibition of Trypsin (serine)” value in experiment [6] is reported as 0%.
